The target in series [1] is extracellular-signal-regulated kinase 8 (ERK8) (Homo sapiens, UniProt Q8TD08). Conditions: cited from earlier work.
Series [2] has as its target PIM1 (Homo sapiens, UniProt P11309). Conditions: cited from earlier work.
Series [3] deals with HIPK2 (Homo sapiens, UniProt Q9H2X6). The settings on record: cited from earlier work.
Series [4] addresses DYRK1a (Homo sapiens, UniProt Q13627). The settings on record: cited from earlier work.
Series [5] addresses casein kinase 2 (CK2) (Homo sapiens, UniProt P68400). The settings on record: cited from earlier work.
Series [6] relates to JNK1, 2 and 3. The settings on record: cited from earlier work.
Series [7] relates to human CD34+ HSPCs. Briefly: HDR gene editing efficiency in HSPCs (ddPCR, GFP flow cytometry). It counts as cell-based. For orientation: A flow cytometer gives signals particle by particle.
Series [8] deals with c-Jun phosphorylation. Conditions: cited from earlier work.
For series [9] the following is noted: cited from earlier work.
Series [10] addresses ATM kinase (Homo sapiens, UniProt Q13315). Conditions: cited from earlier work.
The target of series [11] is ATR (Homo sapiens, UniProt Q13535). Conditions: cited from earlier work.
Series [12] concerns the target T1, ATR (Mus musculus, UniProt Q9JKK8).
T1 construct: endogenous in cells; host or cells: 3T3TopBP1-ER cells
Conditions: 3T3TopBP1-ER cells; cited from earlier work.

Series [13] relates to JNK. The settings on record: cited from earlier work.
Series [14] deals with T2, JNK.
T2 construct: IC50; Ki
The settings on record: cited from earlier work.

For series [15], the system named is human recombinant MEK1, MKK4, IKKα, PKCα, Src, Syc and PDGFα. The settings on record: at concentrations less than 30 μM; cited from earlier work.
Series [16] deals with Mv1Lu cells. The settings on record: read-out: IC50, TGFβ-induced AP-1 activation; cited from earlier work.
In series [17] the test system is JNK and JIP. Conditions: read-out: IC50, protein-protein interaction between JNK and JIP; cited from earlier work.
Series [18] deals with BRD4 (Homo sapiens, UniProt O60885). The settings on record: cited from earlier work.
The subject of series [19] is IL8, CXCL10, p21, p16. Briefly: Gene expression in BM-derived HSPCs (qPCR). It counts as cell-based, human. The settings on record: 18 weeks post transplantation, HS/AAV6 ± GSE56. The method, then: For gene expression analyses, total RNA was extracted using either miRNeasy Micro Kit (QIAGEN) according to the manufacturer's instructions and DNase treatment was performed using RNase-free DNase Set (QIAGEN). cDNA was synthetized with iScript cDNA Synthesis Kit (Bio-Rad). cDNA was then pre-amplified using TaqMan PreAmp Master Mix (ThermoFisher) and used for q-PCR in a Viia7 Real-time PCR thermal cycler using both Fast SYBR Green Master Mix (Thermofisher), after standard curve method optimization to reach the 100% primer efficiency for each couple of primers listed in 1. The relative expression of each target gene was first normalized to GUSB housekeeping genes expression and then represented as 2^-DCt for each sample or as fold changes (2^-DDCt) relative to the indicated control conditions.

In series [20] the test system is IL1A, IL8, IL6, CCL2. As to the kind of experiment: Inflammatory cytokine expression in edited HSPCs (qPCR). It counts as cell-based, human. Conditions: CB HSPCs, HS/AAV6; inhibitor at time of GE vs standard protocol.
Series [21] has as its system edited human CD34+ HSPCs. As to the kind of experiment: CD34+ HSPC xenotransplantation in NSG mice. Format: in vivo. Conditions: inhibitor at time of ex vivo GE (GSE56: limiting cell doses).
Series [22] deals with human CD34+ HSPCs. Briefly: Colony-forming unit cell (CFU-C) assay. Format: cell-based. Conditions: CB HSPCs, HS/AAV6; inhibitor at time of GE vs standard protocol; 24 h and 96 h post GE.
Series [23] relates to BM-derived human CD34+ cells. Briefly: Senescence markers (p16, SA-β-Gal) in BM-derived cells of the human graft. It counts as in vivo, NSG mice. Conditions: NSG mice, endpoint 15-18 weeks; inhibitor at time of ex vivo GE.
For series [24], the system named is BM-derived human CD34+ cells. Briefly: CFU-C assay of CD34+ cells retrieved from bone marrow of primary recipients. It counts as cell-based. The settings on record: 15-18 weeks, inhibitor at time of ex vivo GE vs standard protocol.

Entries after “also recorded” stand apart in the source; their conditions may differ. Counter-ions that a name gives are not always drawn.

Sequence of casein kinase 2 (CK2) (P68400 whole entry): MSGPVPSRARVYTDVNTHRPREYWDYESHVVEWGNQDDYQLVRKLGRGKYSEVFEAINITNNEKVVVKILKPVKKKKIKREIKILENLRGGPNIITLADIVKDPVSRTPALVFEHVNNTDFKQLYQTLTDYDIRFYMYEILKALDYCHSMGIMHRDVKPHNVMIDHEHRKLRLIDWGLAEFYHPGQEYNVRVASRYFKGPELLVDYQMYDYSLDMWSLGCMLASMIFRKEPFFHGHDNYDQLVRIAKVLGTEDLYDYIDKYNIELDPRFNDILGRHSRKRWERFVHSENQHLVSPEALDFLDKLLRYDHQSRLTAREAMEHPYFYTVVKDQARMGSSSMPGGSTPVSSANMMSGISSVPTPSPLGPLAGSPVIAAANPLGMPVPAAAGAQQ
Sequence of ATM kinase (Q13315 whole entry): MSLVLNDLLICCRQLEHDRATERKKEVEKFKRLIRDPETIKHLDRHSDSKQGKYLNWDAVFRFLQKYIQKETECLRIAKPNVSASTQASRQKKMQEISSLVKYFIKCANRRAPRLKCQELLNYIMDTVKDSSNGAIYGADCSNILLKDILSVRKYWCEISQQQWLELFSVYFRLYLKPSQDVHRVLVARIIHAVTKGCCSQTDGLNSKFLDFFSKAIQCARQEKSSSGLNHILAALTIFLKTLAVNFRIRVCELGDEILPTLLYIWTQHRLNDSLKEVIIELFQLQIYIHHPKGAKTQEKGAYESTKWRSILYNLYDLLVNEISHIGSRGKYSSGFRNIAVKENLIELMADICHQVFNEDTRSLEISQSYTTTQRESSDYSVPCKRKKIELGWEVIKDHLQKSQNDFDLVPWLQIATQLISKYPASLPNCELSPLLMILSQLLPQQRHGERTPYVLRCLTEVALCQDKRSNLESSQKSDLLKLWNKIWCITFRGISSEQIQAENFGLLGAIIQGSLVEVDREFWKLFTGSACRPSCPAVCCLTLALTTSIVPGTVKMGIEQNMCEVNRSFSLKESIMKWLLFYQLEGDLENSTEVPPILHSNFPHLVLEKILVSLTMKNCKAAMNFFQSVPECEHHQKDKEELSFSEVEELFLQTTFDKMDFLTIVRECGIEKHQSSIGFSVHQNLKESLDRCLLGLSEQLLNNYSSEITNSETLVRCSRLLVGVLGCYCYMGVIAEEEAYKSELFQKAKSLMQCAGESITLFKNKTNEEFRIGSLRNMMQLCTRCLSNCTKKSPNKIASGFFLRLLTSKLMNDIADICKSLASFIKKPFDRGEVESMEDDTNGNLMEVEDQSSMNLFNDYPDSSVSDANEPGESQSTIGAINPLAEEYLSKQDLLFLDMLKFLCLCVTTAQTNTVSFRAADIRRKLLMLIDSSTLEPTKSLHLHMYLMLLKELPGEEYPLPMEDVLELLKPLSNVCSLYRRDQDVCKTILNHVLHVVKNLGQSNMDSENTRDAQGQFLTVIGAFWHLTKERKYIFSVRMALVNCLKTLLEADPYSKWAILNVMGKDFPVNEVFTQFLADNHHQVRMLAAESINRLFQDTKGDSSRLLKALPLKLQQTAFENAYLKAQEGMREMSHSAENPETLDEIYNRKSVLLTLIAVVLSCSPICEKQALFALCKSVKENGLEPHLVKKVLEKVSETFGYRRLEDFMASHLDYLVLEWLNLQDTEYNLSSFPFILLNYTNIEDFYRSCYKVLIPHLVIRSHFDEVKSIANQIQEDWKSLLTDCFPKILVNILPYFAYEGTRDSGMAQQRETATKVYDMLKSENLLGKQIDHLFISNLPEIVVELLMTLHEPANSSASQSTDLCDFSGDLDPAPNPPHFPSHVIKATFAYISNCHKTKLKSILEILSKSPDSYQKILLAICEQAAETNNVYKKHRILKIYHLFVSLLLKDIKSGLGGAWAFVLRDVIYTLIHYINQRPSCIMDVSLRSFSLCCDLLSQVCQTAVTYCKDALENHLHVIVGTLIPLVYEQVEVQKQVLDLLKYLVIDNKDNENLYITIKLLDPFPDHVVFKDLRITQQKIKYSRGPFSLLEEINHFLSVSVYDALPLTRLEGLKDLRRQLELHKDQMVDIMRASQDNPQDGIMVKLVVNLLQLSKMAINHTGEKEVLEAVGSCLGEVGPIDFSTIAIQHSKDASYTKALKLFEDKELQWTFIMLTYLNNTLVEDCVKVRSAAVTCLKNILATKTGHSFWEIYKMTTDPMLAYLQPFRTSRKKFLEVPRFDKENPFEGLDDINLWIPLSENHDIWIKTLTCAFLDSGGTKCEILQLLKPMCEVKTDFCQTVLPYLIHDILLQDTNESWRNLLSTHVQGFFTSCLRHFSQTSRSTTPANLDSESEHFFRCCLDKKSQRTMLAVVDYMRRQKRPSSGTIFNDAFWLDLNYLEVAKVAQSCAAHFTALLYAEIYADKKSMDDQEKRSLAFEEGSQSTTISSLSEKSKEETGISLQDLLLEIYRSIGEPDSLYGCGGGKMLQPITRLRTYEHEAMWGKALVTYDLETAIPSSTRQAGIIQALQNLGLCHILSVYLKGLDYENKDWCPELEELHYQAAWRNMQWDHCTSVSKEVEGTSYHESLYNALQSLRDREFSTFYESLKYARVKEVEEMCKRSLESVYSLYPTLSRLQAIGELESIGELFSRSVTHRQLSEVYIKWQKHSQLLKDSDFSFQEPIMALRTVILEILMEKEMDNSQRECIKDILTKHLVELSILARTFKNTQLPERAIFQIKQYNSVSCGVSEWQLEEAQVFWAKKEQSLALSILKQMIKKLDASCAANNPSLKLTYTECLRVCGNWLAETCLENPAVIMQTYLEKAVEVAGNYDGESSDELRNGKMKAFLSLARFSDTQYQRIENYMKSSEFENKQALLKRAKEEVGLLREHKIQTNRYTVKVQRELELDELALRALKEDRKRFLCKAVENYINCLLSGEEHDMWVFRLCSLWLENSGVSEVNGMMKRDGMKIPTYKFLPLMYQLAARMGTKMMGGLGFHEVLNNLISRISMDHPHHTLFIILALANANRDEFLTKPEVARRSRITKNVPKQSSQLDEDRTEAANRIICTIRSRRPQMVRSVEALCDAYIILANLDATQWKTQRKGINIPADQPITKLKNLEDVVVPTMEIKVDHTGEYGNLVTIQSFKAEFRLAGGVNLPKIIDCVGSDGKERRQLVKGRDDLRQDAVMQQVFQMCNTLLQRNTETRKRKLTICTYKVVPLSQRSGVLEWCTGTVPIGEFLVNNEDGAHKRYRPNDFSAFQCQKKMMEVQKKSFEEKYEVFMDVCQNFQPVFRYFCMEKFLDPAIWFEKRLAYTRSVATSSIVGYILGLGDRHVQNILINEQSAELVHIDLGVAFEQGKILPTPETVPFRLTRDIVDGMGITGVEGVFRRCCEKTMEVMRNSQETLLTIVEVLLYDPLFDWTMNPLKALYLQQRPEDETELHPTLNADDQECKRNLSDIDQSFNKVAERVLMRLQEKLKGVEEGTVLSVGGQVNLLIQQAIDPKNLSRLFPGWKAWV
Sequence of HIPK2 (Q9H2X6 whole entry, species assumed): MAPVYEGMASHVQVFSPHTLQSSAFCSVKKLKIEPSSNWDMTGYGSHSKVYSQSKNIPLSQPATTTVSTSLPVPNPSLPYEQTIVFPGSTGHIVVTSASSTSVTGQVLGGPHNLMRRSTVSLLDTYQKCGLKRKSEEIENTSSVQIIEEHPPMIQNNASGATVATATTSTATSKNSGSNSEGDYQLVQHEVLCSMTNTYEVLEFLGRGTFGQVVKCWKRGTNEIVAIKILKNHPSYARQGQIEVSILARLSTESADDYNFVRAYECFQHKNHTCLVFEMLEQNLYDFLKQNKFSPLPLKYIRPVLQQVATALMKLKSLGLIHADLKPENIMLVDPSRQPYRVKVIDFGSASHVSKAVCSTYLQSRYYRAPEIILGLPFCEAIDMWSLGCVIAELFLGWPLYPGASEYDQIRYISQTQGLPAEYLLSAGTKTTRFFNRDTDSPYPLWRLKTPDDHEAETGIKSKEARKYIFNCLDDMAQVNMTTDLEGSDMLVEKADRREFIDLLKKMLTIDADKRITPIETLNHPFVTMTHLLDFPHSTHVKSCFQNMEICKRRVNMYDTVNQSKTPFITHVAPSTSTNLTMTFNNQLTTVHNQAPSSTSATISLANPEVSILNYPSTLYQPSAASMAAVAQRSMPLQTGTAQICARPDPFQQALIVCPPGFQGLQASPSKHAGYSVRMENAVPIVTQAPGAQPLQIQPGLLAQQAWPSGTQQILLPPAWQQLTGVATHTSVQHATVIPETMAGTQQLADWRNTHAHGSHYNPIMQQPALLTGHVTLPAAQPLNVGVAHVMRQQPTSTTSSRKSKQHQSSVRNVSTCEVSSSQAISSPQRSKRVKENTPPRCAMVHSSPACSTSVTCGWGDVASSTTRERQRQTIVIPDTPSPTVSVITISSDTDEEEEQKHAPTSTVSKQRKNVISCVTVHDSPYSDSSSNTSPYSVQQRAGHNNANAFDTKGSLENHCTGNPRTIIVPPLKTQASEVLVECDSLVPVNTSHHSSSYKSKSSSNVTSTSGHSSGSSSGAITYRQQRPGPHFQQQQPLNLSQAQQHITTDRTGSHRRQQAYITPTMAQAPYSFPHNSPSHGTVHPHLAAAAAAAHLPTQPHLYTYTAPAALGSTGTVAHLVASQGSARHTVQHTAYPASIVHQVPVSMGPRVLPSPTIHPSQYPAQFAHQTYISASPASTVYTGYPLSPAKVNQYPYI
Sequence of PIM1 (P11309 whole entry, species assumed): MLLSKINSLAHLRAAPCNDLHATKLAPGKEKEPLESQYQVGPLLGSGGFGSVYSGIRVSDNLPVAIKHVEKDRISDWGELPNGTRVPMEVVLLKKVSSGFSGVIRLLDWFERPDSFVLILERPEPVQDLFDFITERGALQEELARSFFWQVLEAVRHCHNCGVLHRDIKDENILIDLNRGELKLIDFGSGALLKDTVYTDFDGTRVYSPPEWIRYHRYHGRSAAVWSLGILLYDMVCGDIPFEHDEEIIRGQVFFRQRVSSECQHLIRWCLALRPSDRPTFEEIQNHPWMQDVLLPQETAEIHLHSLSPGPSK

On to `CN(C)c1nc2c(Br)c(Br)c(Br)c(Br)c2n1CC(=O)O` [TMCB, 2-(4,5,6,7-Tetrabromo-2-(dimethylamino)-1H-benzo[d]imidazol-1-yl)acetic acid], for which the 50% inhibitory concentration (IC50) in series [1] and in [5] was 500 nM each time. For the same molecule, the Ki in series [2] is 8650 nM; in series [3] it was 15200 nM; in [4] it was 11900 nM; in series [5], 250 nM.
In the case of `O=C1c2ccccc2-c2n[nH]c3cccc1c23` [SP600125, Anthra[1-9-cd]pyrazol-6(2H)-one], in [6], the half-maximal inhibitory concentration (IC50) was 40 to 90 nM. Further, the “GFP levels in HSPC subpopulations (GE efficiency)” value in [7] (CB HSPCs, Erk (4 μM) or Jnk (2 μM) inhibitor day 1 and 2 vs DMSO, 96 h post-editing) is “increase in GFP levels”. The “Percentage of more primitive edited cells” value in [7] (Jnk inhibitor 2 μM day 1 and 2) was “higher percentage of more primitive edited cells”.
For the molecule `CCOc1nc(NC(=O)Cc2cc(OC)ccc2OC)cc(N)c1C#N` [TCS JNK 6o, N-(4-Amino-5-cyano-6-ethoxy-2-pyridinyl)-2,5-dimethoxybenzeneacetamide], the half-maximal effective concentration (EC50) in series [8] is 920 nM.
Consider `C[S+]([O-])c1ccc(-c2nc(-c3ccncc3)c(-c3ccc(F)cc3)[nH]2)cc1` (centres unmarked) [SB 203580 hydrochloride], for which the solubility result in series [9] is given as “water-soluble”.
Take `O=c1cc(-c2cccc3c2Sc2ccccc2S3)oc(N2CCOCC2)c1` [KU-55933]: the solubility entry in series [9] was “soluble in DMSO and ethanol”.
In the case of `O=C(NC(NC(=S)Nc1ccc(F)c([N+](=O)[O-])c1)C(Cl)(Cl)Cl)C(c1ccccc1)c1ccccc1` (centres unmarked) [CGK 733], the IC50 in [10] and in series [11] was around 200 nM in each case.
Regarding `Cn1c(=O)n(-c2ccc(C(C)(C)C#N)cc2)c2c3cc(-c4cnc5ccccc5c4)ccc3ncc21` [BEZ235], in series [12], the 50% inhibitory concentration (IC50) was around 21 nM.
Take `Cl.Cl.c1cc(OCCN2CCCCC2)cc(-c2n[nH]c3ccc(-c4ncn[nH]4)cc23)c1` [CC 401 dihydrochloride, 3-[3-[2-(1-Piperidinyl)ethoxy]phenyl]-5-(1H-1,2,4-triazol-5-yl)-1H-indazole dihydrochloride]: the “selectivity for JNK over p38, ERK, IKK2, protein kinase C, Lck and ZAP70” value in series [13] is above 40 fold. Moreover, the inhibition constant Ki in series [14] was 25 to 50 nM.
As for `Nc1n[nH]c2nnc(-c3c(-c4ccccc4)nn4ccccc34)cc12` [FR180204, 5-(2-Phenyl-pyrazolo[1,5-a]pyridin-3-yl)-1H-pyrazolo[3,4-c]pyridazin-3-ylamine], in series [15], the “activity against MEK1, MKK4, IKKα, PKCα, Src, Syc and PDGFα” value was “no activity”. In addition, the IC50 in [16] is 3100 nM.
On to `Nc1nnc(Sc2ncc([N+](=O)[O-])s2)s1` [SU 3327, 5-[(5-Nitro-2-thiazolyl)thio]-1,3,4thiadiazol-2-amine], for which the IC50 is 239 nM in [17] and 700 nM in [14].
With `CCOc1cc(N2CCC(O)CC2)ccc1Nc1ncc2c(n1)N(C)c1ccccc1C(=O)N2C` [XMD 8-92, 2-[[2-Ethoxy-4-(4-hydroxy-1-piperidinyl)phenyl]amino]-5,11-dihydro-5,11-dimethyl-6H-pyrimido[4,5-b][1,4]benzodiazepin-6-one], in [18], the dissociation constant (Kd) was 190 nM.

B1: GSE56: mRNA encoding for a dominant negative p53 truncated form (GSE56), co-electroporated; SEQ ID No. 8 and 9 (nucleic acid)
sense: ATGGATGGATGGTGTCCTGGGAGAGACCGTCGGACAGAGGAAGAAAATTTCCGCAAAAAAGAAGAGCATTGCCCGGAGCTGCCCCCAGGGAGTGCAAAGAGAGCACTGCCCACCAGCACAAGCTCCTCTCCCCAGCAAAAGAAAAAACCACTCGATGGAGAATATTTCACCCTTAAGATCCGTGGGCGTGAGCGCTTCGAGATGTTCCGAGAGCTGAATGAGGCCTTGGAATTAAAGGATGCCCGTGCTGCCGAGGAGTCAGGAGACAGCAGGGCTCACTCCAGCTACCCGAAGATAGTTAGTTAG
As to B1, the “mRNA levels of p21, p16 and IL8 in BM-derived HSPCs” value in [19] is given as “mitigated by the administration of GSE56”. In addition, the “Relative expression of inflammatory cytokine genes (IL1A, IL8, IL6, CCL2)” value in series [20] is reported as “downregulation of the cytokines”. Besides, the “Human CD45+ engraftment in peripheral blood vs standard protocol” value in series [21] is given as “fourfold higher engraftment than the standard protocol”. The “Number of colonies (HSPC clonogenic potential)” value in series [22] was “similarly increased”. Besides, the “Percentage of senescent cells (p16, SA-β-Gal) in BM-derived CD34+ / HDR-edited cells of the human graft” value in series [23] was “prevented the accumulation of the senescence marker SA-β-gal; also recorded: this reduction was observed also upon p53 inhibition”. Moreover, the “Percentage of HDR-edited alleles (ddPCR)” value in series [7] (CB HSPCs, AAVS1 editing (HS/AAV6), inhibitor at time of GE (Anakinra 50 ng/μl, SC514 25 μM, GSE56 mRNA, ATMi) vs standard protocol) is given as “tended to increase the percentage of HDR editing”. Besides, the “Number of colonies formed by BM-derived CD34+ cells” value in [24] is “improvement of HSPC clonogenic potential upon p53 inhibition; also recorded: became higher upon p53 inhibition”.

The IC50 is the point on the concentration scale where inhibition reaches its midpoint. As a reminder, the Ki is a measure of affinity in units of concentration, obtained from inhibition or displacement. By EC50 is commonly meant the concentration needed to bring the measured effect to its halfway point. What is called Kd is the equilibrium constant for the complex coming apart.

The record behind these values is patent publication US20240408145A1, “Gene Therapy” (Ospedale San Raffaele S.r.l., priority 2021, published 2024).
